Legend:
[1] = test system: Rhopalosiphum padi; assay: Efficacy on aphids on infested wheat seedlings, spray treatment; type: in vivo; settings: sprayed on wheat seedlings
Method: The trial was carried out on wheat infected with aphids.
Rhopalosiphum padi aphids are reared on wheat in the laboratory. The rearing conditions are as follows: 14 hrs in the light at 18° C., and 10 hrs in darkness at 15° C. at a relative humidity (RH) of 60-70%.
“Triticum aestivum” wheat of the Apache variety is grown under the following conditions: 14 hrs in the light at 18° C., and 10 hrs in darkness at 15° C. at a relative humidity (RH) of 60-70%. For the experiments, seedlings having reached stage 12 on the BBCH-scale, i.e. 2 leaves, are chosen.
On D-1, 3 adult aphids are placed on each wheat seedling (approximately 30 seedlings per dose tested). The seedlings are kept for 14 hrs in the light at 18° C., and 10 hrs in darkness at 15° C. at a relative humidity (RH) of 60-70%.
On day D, the seedlings are treated with a composition as described in Example 1.a.). Emulsions containing the following doses of isoamyl laurate were tested: 1.35 L/ha (N/4), 2.7 L/ha (N/2), […] (N), 10.8 L/ha (2N) and 16.2 L/ha (3N). Two controls are carried out: a first control using water and a second control using the adjuvant, tested alone, at a dose of 1.8 L/ha, which corresponds to the dose of adjuvant contained in dose 3N of isoamyl laurate. The volume of composition sprayed corresponds to the equivalent of 200 L/ha.
For the treatment, nozzles are used to spray the different emulsions and to produce a good distribution of the drops over the plants (TeeJet 100015-VS flat spray nozzle used on a Euro-Pulvé laboratory sprayer).
On D+1, D+3, D+7, the adults and larvae present on each seedling are counted.
Statistical analysis is carried out using XLSTATS and a variance analysis is carried out using a Newman-Keuls and a Dunnett's test. The Dunnett's tests used post hoc following an ANOVA give a probability of 0.00.
The seedlings are treated on day D with a composition as described in Example 1.b). An emulsion containing the following dose of 2-ethylhexyl caprate was tested: 16.2 L/ha (3N). […]

[2] = test system: Pollen beetles Meligethes aeneus, strains resistant to pyrethroids; assay: Efficacy on pollen beetles, coated glass phial, IRAC method no.11, strains resistant to pyrethroids; type: in vivo; settings: after 24 hrs
Method: (§1) The efficacy of isoamyl laurate against pollen beetles has been evaluated according to a protocol based on IRAC (Insecticide Resistance Action Committee) method no.11, version 3, June 2009.
(§2) Pollen beetles are collected from different locations in infested fields. They are then kept in ventilated plastic boxes, in the bottom of which a dry paper has been placed. A number of oilseed rape leaves as well as 2 to 3 oilseed rape in flower are added as a food source. As it is important that the pollen beetles are not subjected to excessive temperatures, to humid conditions or other sources of stress following collection, they are kept under the following conditions: 14 hrs in the light at 18° C., and 10 hrs in darkness at 15° C. at a relative humidity (RH) of 60-70%.
(§3) The isoamyl laurate product was solubilized in acetone. Each solution was then placed in a homogeneous manner on the inside of a glass phial 2 cm in diameter and 4 cm in height, until the acetone has completely evaporated. The quantity of insecticide provided by 0.5 mL of acetone solution is calculated in such a way that a unit of area of the phial is covered with the same quantity of insecticide as that carried by the same unit of area of a leaf belonging to a field having undergone a treatment at 200 L/ha.
(§4) 10 pollen beetles are introduced into each phial, each trial being carried out twice.
(§5) Mortality is evaluated after 24 hrs.

[3] = test system: Ostrinia nubilalis; assay: Efficacy on the European corn borer on corn leaves, spray treatment; type: in vivo; settings: dose 6.0 L/ha, composition 1.a, counted on D+3
Method: The test was carried out on corn infected by the European corn borer. Egg clusters from Ostrinia nubilalis are kept under controlled laboratory conditions in order to allow the eggs to develop. The eggs are kept for 14 hrs in the light and at 18° C., and for 10 hrs in the dark at 15° C. at a relative humidity varying from 60 to 70%. After emerging, the larvae at the 1st and 2nd instar stages are used in the experiment. “Zea Mays” corn of the variety DK315 is grown under the following conditions: 14 hrs in the light at 18° C., and 10 hrs in darkness at 15° C. at a relative humidity (RH) of 60-70%. On D-1, 3 corn leaves are taken from the seedlings and placed in ventilated plastic boxes. 10 larvae are then placed onto the corn leaves in each box, the trial being repeated three times. The larvae are kept for 14 hrs in the light at 18° C., and 10 hrs in darkness at 15° C. at a relative humidity (RH) of 60-70%. The leaves are treated on day D with a composition as described in Example 1.a) with a dose of isoamyl laurate equivalent to 6.0 L/ha. For the treatment, nozzles are used to spray the composition in example 1.a) and to produce a good distribution of the drops onto the plants (TeeJet 110015-VS flat spray nozzle used on a Euro-Pulvé laboratory sprayer). […] On D+3, the larvae and adults present in each box are counted. […]

[4] = Trials comparing a concentrate containing isoamyl laurate with a commercial insecticide containing Lambda-cyhalothrin; settings: concentrate containing isoamyl laurate vs commercial insecticide containing Lambda-cyhalothrin
Excerpt: Preferably, in the concentrates according to the invention, the insecticide and/or arachnicide compound of formula (I) is 3-methylbutyl dodecanoate (isoamyl laurate).

[5] = test system: Pollen beetles Meligethes aeneus, susceptible; assay: Efficacy on pollen beetles, coated glass phial, IRAC method no.11, susceptible strains; type: in vivo; settings: after 24 hrs
Method: as §1, §2, §3, §4, §5

[6] = test system: Leptinotarsa decemlineata; assay: Efficacy on Colorado potato beetle larvae, leaf soaking, IRAC method no.7; type: in vivo; settings: dose 6.0 L/ha, composition 1.a, L4 larvae, mortality after 5 hrs
Method: The efficacy of isoamyl laurate on Colorado potato beetles has been evaluated according to a protocol based on IRAC (Insecticide Resistance Action Committee) method no.7, version 3, June 2009. Eggs from the Colorado potato beetle are collected from fields and placed on the lower (abaxial) surface of potato leaves. After 4 to 15 days, the hatching of the eggs takes place, producing dark red-brown larvae. Potato leaves are treated by soaking for 5 seconds in a composition as described in Example 1.a) at a dose of isoamyl laurate equivalent to 6.0 L/ha. The potato leaves are infested on the abaxial face thereof with 5 Colorado potato beetle larvae at stage L4. Each trial is repeated a second time. Mortality is evaluated after 5 hrs. At a dose of 6.0 L/ha of isoamyl laurate, 10% efficacy is obtained on the Colorado potato beetle larvae.

[7] = dose 3N (16.2 L/ha) on D+1, composition with Actirob B adjuvant

SMILES: CCCCCCCCCC(=O)OCC(CC)CCCC (stereo not shown) [2-ethylhexyl caprate]
- efficacy [1, 7]: ~55%

SMILES: CCCCCCCCCCCCCCCC(=O)OCC(CC)CCCC (stereo not shown) [2-ethylhexyl palmitate, reference compound]
- efficacy [1, 7]: approximately 10%

SMILES: CCCCCCCCCCCC(=O)OCCC(C)C [isoamyl laurate, 3-methylbutyl dodecanoate]
- efficacy ([1]; dose 3N (16.2 L/ha), composition 1.a with Actirob B adjuvant, FIG. 2): ~80%
- Efficacy (%) Strains resistant to pyrethroids ([2]; dose 2.0 L/ha): 40%
- Efficacy (%) Strains resistant to pyrethroids ([2]; dose 4.0 L/ha): 75%
- efficacy against the larvae and adults [3]: 19.5%
- toxicity (aquatic toxicity, toxicity in humans through inhalation, irritation of the skin and eyes) [4]: less toxic
- Efficacy (%) Susceptible ([5]; dose 2.0 L/ha): 55%
- Efficacy (%) Susceptible ([5]; dose 4.0 L/ha): 90%
- efficacy (mortality) on larvae [6]: 10%
